≈ marks a conversion by molar mass, not a printed value.
Assays:
Experiment in all cases: In vitro antibacterial activity, MIC by agar dilution
Assay type in all cases: cell-based
Settings in all cases: BHI agar, 35-37°C, 20-24 hours, unit assumed
[1] = system: Acinetobacter calcoaceticus CMX 669
Method in brief: (§1)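 MIC read as the lowest test-compound concentration showing no growth, a slight haze or sparsely isolated colonies at the spot counting as none, relative to a drug-free control plate. Inocula of about 10^4 CFU were replicator-applied; plates incubated roughly 20–24 hours at 35–37°C.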

[2] = system: Enterobacter aerogenes ATCC 13048
Method in brief: as §1

[3] = system: Enterococcus faecium ATCC 8043
Method in brief: as §1

Escherichia coli DC-2 = system: Escherichia coli DC-2
Method in brief: as §1

Escherichia coli H560 = system: Escherichia coli H560
Method in brief: as §1

Escherichia coli JUHL = system: Escherichia coli JUHL
Method in brief: as §1

Escherichia coli KNK 437 = system: Escherichia coli KNK 437
Method in brief: as §1

Escherichia coli SS = system: Escherichia coli SS
Method in brief: as §1

[4] = system: Klebsiella pneumoniae ATCC 8045
Method in brief: as §1

[5] = system: Micrococcus luteus ATCC 4698
Method in brief: as §1

[6] = system: Micrococcus luteus ATCC 9341
Method in brief: as §1

[7] = system: Providencia stuartii CMX 640
Method in brief: as §1

[8] = system: Pseudomonas aeruginosa 2862
Method in brief: as §1

[9] = system: Pseudomonas aeruginosa 5263
Method in brief: as §1

[10] = system: Pseudomonas aeruginosa A5007
Method in brief: as §1

[11] = system: Pseudomonas aeruginosa BMH10
Method in brief: as §1

[12] = system: Pseudomonas aeruginosa K799/61
Method in brief: as §1

[13] = system: Pseudomonas aeruginosa K799/WT
Method in brief: as §1

Pseudomonas cepacia 296I = system: Pseudomonas cepacia 296I
Method in brief: as §1

[14] = system: Staphylococcus aureus 1775
Method in brief: as §1

[15] = system: Staphylococcus aureus 642A
Method in brief: as §1

[16] = system: Staphylococcus aureus A-5278
Method in brief: as §1

[17] = system: Staphylococcus aureus A5177
Method in brief: as §1

[18] = system: Staphylococcus aureus ATCC 6538P
Method in brief: as §1

[19] = system: Staphylococcus aureus CMX 553
Method in brief: as §1

[20] = system: Staphylococcus aureus NCTC 10649
Method in brief: as §1

[21] = system: Staphylococcus epidermidis 3519
Method in brief: as §1

[22] = system: Streptococcus agalactaciae CMX 508
Method in brief: as §1

[23] = system: Streptococcus bovis A5169
Method in brief: as §1

[24] = system: Streptococcus pyrogenes 2548 INDUC
Method in brief: as §1

[25] = system: Streptococcus pyrogenes CONST
Method in brief: as §1

[26] = system: Streptococcus pyrogenes EES61
Method in brief: as §1

Structure (SMILES): CN1CCN(c2nc3c(C4CC4)cc(C(=O)O)c(=O)n3cc2F)CC1 [Example 163, 9-Cyclopropyl-3-fluoro-2-(4-methylpiperazin-1-yl)-6H-6-oxo-pyrido[1,2-a]pyrimidine-7-carboxylic acid]
- MIC values [1]: 0.39 µg/mL (≈ 1.13 µM)
- MIC values [2]: 0.39 µg/mL (≈ 1.13 µM)
- MIC values [3]: 12.5 µg/mL (≈ 36.1 µM)
- MIC values (Escherichia coli DC-2): 6.2 µg/mL (≈ 17.9 µM)
- MIC values (Escherichia coli H560): 0.1 µg/mL (≈ 0.289 µM)
- MIC values (Escherichia coli JUHL): 0.2 µg/mL (≈ 0.577 µM)
- MIC values (Escherichia coli KNK 437): 3.1 µg/mL (≈ 8.95 µM)
- MIC values (Escherichia coli SS): 0.1 µg/mL (≈ 0.289 µM)
- MIC values [4]: 0.1 µg/mL (≈ 0.289 µM)
- MIC values [5]: 12.5 µg/mL (≈ 36.1 µM)
- MIC values [6]: 25 µg/mL (≈ 72.2 µM)
- MIC values [7]: 50 µg/mL (≈ 144 µM)
- MIC values [8]: > 100 µg/mL
- MIC values [9]: 100 µg/mL (≈ 289 µM)
- MIC values [10]: 3.1 µg/mL (≈ 8.95 µM)
- MIC values [11]: 1.56 µg/mL (≈ 4.5 µM)
- MIC values [12]: 1.56 µg/mL (≈ 4.5 µM)
- MIC values [13]: 3.1 µg/mL (≈ 8.95 µM)
- MIC values (Pseudomonas cepacia 296I): 12.5 µg/mL (≈ 36.1 µM)
- MIC values [14]: 100 µg/mL (≈ 289 µM)
- MIC values [15]: 1.56 µg/mL (≈ 4.5 µM)
- MIC values [16]: 1.56 µg/mL (≈ 4.5 µM)
- MIC values [17]: 1.56 µg/mL (≈ 4.5 µM)
- MIC values [18]: 1.56 µg/mL (≈ 4.5 µM)
- MIC values [19]: 1.56 µg/mL (≈ 4.5 µM)
- MIC values [20]: 0.78 µg/mL (≈ 2.25 µM)
- MIC values [21]: 1.56 µg/mL (≈ 4.5 µM)
- MIC values [22]: 12.5 µg/mL (≈ 36.1 µM)
- MIC values [23]: 50 µg/mL (≈ 144 µM)
- MIC values [24]: 12.5 µg/mL (≈ 36.1 µM)
- MIC values [25]: 12.5 µg/mL (≈ 36.1 µM)
- MIC values [26]: 12.5 µg/mL (≈ 36.1 µM)

Structure (SMILES): O=C(O)c1cc(C2CC2)c2nc(N3CCNCC3)c(F)cn2c1=O [Example 164, 9-Cyclopropyl-3-fluoro-2-(piperazin-1-yl)-6H-6-oxo-pyrido[1,2-a]pyrimidine-7-carboxylic acid]
- MIC values [1]: 0.39 µg/mL (≈ 1.17 µM)
- MIC values [2]: 0.05 µg/mL (≈ 0.15 µM)
- MIC values [3]: 12.5 µg/mL (≈ 37.6 µM)
- MIC values (Escherichia coli DC-2): 1.56 µg/mL (≈ 4.69 µM)
- MIC values (Escherichia coli H560): 0.1 µg/mL (≈ 0.301 µM)
- MIC values (Escherichia coli JUHL): 0.05 µg/mL (≈ 0.15 µM)
- MIC values (Escherichia coli KNK 437): 1.56 µg/mL (≈ 4.69 µM)
- MIC values (Escherichia coli SS): 0.02 µg/mL (≈ 0.0602 µM)
- MIC values [4]: 0.05 µg/mL (≈ 0.15 µM)
- MIC values [5]: 6.2 µg/mL (≈ 18.7 µM)
- MIC values [6]: 12.5 µg/mL (≈ 37.6 µM)
- MIC values [7]: 12.5 µg/mL (≈ 37.6 µM)
- MIC values [8]: 100 µg/mL (≈ 301 µM)
- MIC values [9]: 100 µg/mL (≈ 301 µM)
- MIC values [10]: 0.39 µg/mL (≈ 1.17 µM)
- MIC values [11]: 0.39 µg/mL (≈ 1.17 µM)
- MIC values [12]: 0.1 µg/mL (≈ 0.301 µM)
- MIC values [13]: 0.39 µg/mL (≈ 1.17 µM)
- MIC values (Pseudomonas cepacia 296I): 3.1 µg/mL (≈ 9.33 µM)
- MIC values [14]: 50 µg/mL (≈ 150 µM)
- MIC values [15]: 1.56 µg/mL (≈ 4.69 µM)
- MIC values [16]: 1.56 µg/mL (≈ 4.69 µM)
- MIC values [17]: 1.56 µg/mL (≈ 4.69 µM)
- MIC values [18]: 0.78 µg/mL (≈ 2.35 µM)
- MIC values [19]: 1.56 µg/mL (≈ 4.69 µM)
- MIC values [20]: 1.56 µg/mL (≈ 4.69 µM)
- MIC values [21]: 1.56 µg/mL (≈ 4.69 µM)
- MIC values [22]: 12.5 µg/mL (≈ 37.6 µM)
- MIC values [23]: 12.5 µg/mL (≈ 37.6 µM)
- MIC values [24]: 12.5 µg/mL (≈ 37.6 µM)
- MIC values [25]: 12.5 µg/mL (≈ 37.6 µM)
- MIC values [26]: 12.5 µg/mL (≈ 37.6 µM)

From EP0527889B1, “QUINOLIZINONE TYPE COMPOUNDS” (priority 1990, dated 1991)
